Here are results for six compounds from patent US8431541B2, “Alpha-amylase inhibitors: the montbretins and uses thereof” (The University of British Columbia, priority 2007, dated 2013).

The target of series [1] is T1, human pancreatic α-amylase (HPA) (Homo sapiens, UniProt P04746).
T1 sequence (P04746 16-511): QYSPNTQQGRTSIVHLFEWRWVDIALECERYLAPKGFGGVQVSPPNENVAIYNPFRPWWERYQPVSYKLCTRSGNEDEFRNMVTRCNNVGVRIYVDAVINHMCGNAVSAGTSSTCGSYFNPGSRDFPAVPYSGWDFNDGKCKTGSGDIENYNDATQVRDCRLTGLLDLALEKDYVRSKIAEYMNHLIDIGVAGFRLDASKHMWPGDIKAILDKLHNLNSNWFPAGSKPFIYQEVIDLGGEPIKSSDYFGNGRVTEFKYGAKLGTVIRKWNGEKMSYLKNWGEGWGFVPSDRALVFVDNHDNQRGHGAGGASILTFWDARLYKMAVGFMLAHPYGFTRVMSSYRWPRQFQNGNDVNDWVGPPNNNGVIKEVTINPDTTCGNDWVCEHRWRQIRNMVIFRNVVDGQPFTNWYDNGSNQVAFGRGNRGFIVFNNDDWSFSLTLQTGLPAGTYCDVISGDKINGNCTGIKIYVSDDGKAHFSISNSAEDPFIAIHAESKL
Briefly: Kinetic analysis of HPA inhibition. Format: biochemical.

Series [2] is described as follows: Stability in simulated gastric fluid (SGF) by UPLC. Conditions: positive control, 0.5 mg/ml, 37° C., 1 hour. Format: in vitro ADME. The protocol: (§1) The stability of montbretin A in both simulated intestinal fluid (SIF) and simulated gastric fluid (SGF) were analyzed via ultra performance liquid chromatography (UPLC). The instrument consisted of a Waters® Acquity™ UPLC system equipped with a PDA and a TQ detector in tandem. The 2 μL sample injection volume was passed through a Waters® Acquity™ BEH C18 column (1.7 μm, 2.1×100 mm), with mobile phases A and B consisting of water with 0.1% formic acid and acetonitrile with 0.1% formic acid, respectively. The mobile phases were delivered at a programmed linear gradient at a column temperature of 35° C. Linearity was evaluated using a set of montbretin A calibration standards with concentrations ranging from 10 to 100 μg/mL in water. […]
(§2) To examine the gastrointestinal fluid activity, 0.5 mg/ml solutions of oleamide (positive control) in SGF or SIF were prepared by diluting a 100 μL aliquot of oleamide (50 mg/mL in 2-propanol) to 10 mL with either SGF or SIF and incubated in a 37° C. water bath for 1 or 3 hours, respectively. At time points of 1 or 3 hours, the sample was removed from the water bath and a 100 μL aliquot of the resulting solution was diluted to 1 mL with de-ionized water in a glass UPLC glass sample vial and analyzed by UPLC for oleamide content. […]

A short description of series [3]: Stability in simulated intestinal fluid (SIF) by UPLC. It is filed as in vitro ADME. To be noted: positive control, 0.5 mg/ml, 37° C., 3 hours. How it is done: as §1, §2
Series [4] is described as follows: Aqueous solubility (observation).
A further series deals with T2, human salivary α-amylase (Homo sapiens, UniProt P0DUB6).
T2 sequence (P0DUB6 16-511): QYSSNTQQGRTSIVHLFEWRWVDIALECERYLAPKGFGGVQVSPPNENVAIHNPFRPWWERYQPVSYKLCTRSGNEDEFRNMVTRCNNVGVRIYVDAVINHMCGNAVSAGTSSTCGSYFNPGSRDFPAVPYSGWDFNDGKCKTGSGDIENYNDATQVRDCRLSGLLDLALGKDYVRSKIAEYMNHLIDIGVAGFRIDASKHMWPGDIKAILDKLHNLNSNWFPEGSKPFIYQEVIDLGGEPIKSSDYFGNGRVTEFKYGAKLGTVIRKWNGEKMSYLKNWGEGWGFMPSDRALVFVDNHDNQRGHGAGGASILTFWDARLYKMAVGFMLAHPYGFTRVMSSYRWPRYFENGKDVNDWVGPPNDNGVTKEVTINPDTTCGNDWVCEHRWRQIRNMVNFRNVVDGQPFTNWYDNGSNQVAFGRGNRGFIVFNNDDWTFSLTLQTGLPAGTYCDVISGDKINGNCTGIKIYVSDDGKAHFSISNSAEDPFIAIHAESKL
Conditions: Lo Piparo et al., J. Med. Chem. 2008; read-out: IC50, inhibition of human salivary α-amylase; cited from earlier work.

Series [5] addresses T3, porcine pancreatic α-amylase (Sus scrofa, UniProt P00690).
T3 sequence (P00690 16-511): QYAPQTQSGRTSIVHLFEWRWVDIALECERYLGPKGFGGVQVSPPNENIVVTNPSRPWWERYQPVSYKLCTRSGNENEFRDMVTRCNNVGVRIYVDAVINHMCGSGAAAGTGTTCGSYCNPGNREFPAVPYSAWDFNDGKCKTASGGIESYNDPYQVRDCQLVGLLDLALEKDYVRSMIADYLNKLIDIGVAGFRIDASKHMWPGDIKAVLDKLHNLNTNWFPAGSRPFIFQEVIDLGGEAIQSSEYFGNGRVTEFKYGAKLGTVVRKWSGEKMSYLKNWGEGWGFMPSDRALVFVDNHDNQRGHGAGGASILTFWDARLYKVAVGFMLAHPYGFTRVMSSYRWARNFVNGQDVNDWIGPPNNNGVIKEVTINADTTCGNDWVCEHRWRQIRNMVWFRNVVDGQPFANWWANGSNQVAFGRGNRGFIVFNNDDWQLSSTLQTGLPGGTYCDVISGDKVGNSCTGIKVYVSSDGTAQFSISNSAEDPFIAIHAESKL
To be noted: Taderal et al. 2006; read-out: IC50, inhibition of porcine pancreatic α-amylase; cited from earlier work.

Series [6] concerns control and STZ-diabetic rats. The series is described as follows: Acute starch tolerance test. Format: in vivo, rat. To be noted: STZ-diabetic rats, starch tolerance test; extracts 5 mg/kg. How it is done: Twenty-four animals were obtained at 200-250 g of body weight and randomly divided into control and diabetic groups. Diabetes was induced by a single intravenous tail vein injection of streptozotocin 60 mg/kg in 0.9% normal saline. Control rats received normal saline injections only. Animals were subsequently divided into acarbose untreated and treated. […] Starch was obtained from Fisher Scientific and a 17.5% suspension was made in distilled water. The dose of starch given was […].
The animals were fasted overnight. A basal blood sample was collected (50 μl volume) and then at 30, 60, 90 and 120 minutes post drug administration. Starch and starch+acarbose was administered by oral gavage. Blood was centrifuged at 10,000 g×25 minutes and plasma collected for determination of glucose levels using a Beckman Glucose Analyzer II™. There was no difference in body weight among the groups. There was a significant increase in plasma glucose 30 and 60 minutes following starch administration in the diabetic untreated group only.
The twenty-four animals from Example 6 were used following a wash out period of one week. Animals were divided into montbretin A untreated and treated. The four treatment groups were: control, n=6, control+montbretin A, n=6, diabetic, n=6 and diabetic+montbretin A, n=6. The procedures used in Example 6 were employed. Montbretin A was dissolved in distilled water at a concentration of 10 mg/ml and given at a volume of 1 ml/kg. The dose of montbretin A given was 10 mg/kg. There was no difference in body weight among the groups. There was a significant increase in plasma glucose levels in the diabetic untreated group at 30 and 60 minutes following starch administration.
A study was done to determine the effect of various amounts of montbretin A and montbretin extracts on plasma glucose levels in response to a starch challenge in STZ-diabetic rats. Diabetic animals used in the previous Examples were used following a wash out period of one week. The six experimental groups were: diabetic (D, n=3) diabetic+montbretin A (5 mg/kg), (DT5, n=3), diabetic+montbretin A (1 mg/kg), (DT1, n=3), diabetic+montbretin A (0.5 mg/kg), (DT0.5, n=3), diabetic+Crocosmia corm methanol extract (5 mg/kg), (DM, n=3) and diabetic+Crocosmia corm ethanol extract (5 mg/kg), (DE, n=2).
Montbretin A was dissolved in distilled water at a concentration of 5, 1 or 0.5 mg/ml and given at a volume of 1 ml/kg. The methanol extract contained montbretin A at a concentration of 3.2 mg/ml and ethanol extract at a concentration of 1.6 mg/ml. These extracts were dried and resuspended in distilled water. There was no difference in body weight among the groups. […] Diarrhea occurred in 2 out 3 animals given the methanol extract and in 1 out of 2 animals given the ethanol extract. […]

The mark [7] stands for this setting: range finder method, Dixon plot, fixed substrate concentration.

In the case of `CC1O[C@@H](O[C@@H]2CO[C@@H](Oc3c(O)cc(-c4oc5cc(O)cc(O)c5c(=O)c4O[C@@H]4OC(C)[C@H](O)[C@H](O)C4O[C@@H]4OC(COC(=O)/C=C/c5ccc(O)cc5)[C@@H](O)[C@@H](O)C4O[C@@H]4OC(CO)[C@@H](O)[C@@H](O)C4O)cc3O)C(O)[C@@H]2O)C(O)[C@@H](O)[C@H]1O` (some centres unmarked) [Montbretin B, montbretin B], affinity in series [1] (setting [7]) was put at a Ki of 3.6 ± 0.1 µM.
For the compound `CCCCCCCC/C=C\CCCCCCCC(N)=O` [Oleamide, oleamide, reference compound], in series [2], the “change of concentration after incubation in SGF” value is “significant decrease in concentration”. In addition, in series [3], the “change of concentration after incubation in SIF” value was “significant decrease in concentration”.
As to `CCOC(=O)/C=C/c1ccc(O)c(O)c1` [ethyl caffeiate, reference compound], the “mode of inhibition of HPA” value in series [1] (double reciprocal plot) was “non-competitive”. Moreover, the Ki (commonly the equilibrium dissociation constant of an inhibitor or competing ligand from its target) in series [1] (varied substrate and inhibitor concentrations, GraFit) was 1300 ± 100 µM. The aqueous solubility result in series [4] is reported as “limited aqueous solubility”.
Regarding `O=c1c(O)c(-c2cc(O)c(O)c(O)c2)oc2cc(O)cc(O)c12` [myricetin], the IC50 (in general, the point on the concentration scale where inhibition reaches its midpoint) at human salivary α-amylase was over 9 µM; in series [5], 380 µM. The aqueous solubility result in series [4] is recorded as “limited aqueous solubility”.
For montbretin A, the occurrence of diarrhea result in series [6] was “No diarrhea”.
montbretin C registered a Ki in series [1] (setting [7]) of 6.1 ± 0.1 µM.
